Experiment [1] addresses T1, Phosphorylase b kinase gamma catalytic chain, liver/testis isoform (Homo sapiens) (UniProt P15735).
T1 sequence (whole entry): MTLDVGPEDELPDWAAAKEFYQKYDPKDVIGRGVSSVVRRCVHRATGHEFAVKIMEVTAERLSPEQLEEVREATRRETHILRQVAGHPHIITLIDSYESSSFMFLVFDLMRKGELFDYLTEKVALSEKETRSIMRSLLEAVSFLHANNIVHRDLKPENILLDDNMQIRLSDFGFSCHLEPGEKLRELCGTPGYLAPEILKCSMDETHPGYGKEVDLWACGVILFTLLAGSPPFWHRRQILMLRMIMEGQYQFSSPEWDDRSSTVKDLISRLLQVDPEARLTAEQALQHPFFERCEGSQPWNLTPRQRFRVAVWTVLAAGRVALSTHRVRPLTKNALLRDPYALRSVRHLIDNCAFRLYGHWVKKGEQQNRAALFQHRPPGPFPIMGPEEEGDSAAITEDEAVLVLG
The experiment is described as follows: Selectivity interaction (Upstate Kinase Profiler service (Millipore)) EUB0000056c PHKG2. Conditions: at 1 µM.

For experiment [2], the target named is LIM domain kinase 1 (Homo sapiens) (UniProt P53667). Conditions: at 10 µM.
Chain of LIM domain kinase 1 (Homo sapiens) (P53667 whole entry, looked up, the tested form may be a part): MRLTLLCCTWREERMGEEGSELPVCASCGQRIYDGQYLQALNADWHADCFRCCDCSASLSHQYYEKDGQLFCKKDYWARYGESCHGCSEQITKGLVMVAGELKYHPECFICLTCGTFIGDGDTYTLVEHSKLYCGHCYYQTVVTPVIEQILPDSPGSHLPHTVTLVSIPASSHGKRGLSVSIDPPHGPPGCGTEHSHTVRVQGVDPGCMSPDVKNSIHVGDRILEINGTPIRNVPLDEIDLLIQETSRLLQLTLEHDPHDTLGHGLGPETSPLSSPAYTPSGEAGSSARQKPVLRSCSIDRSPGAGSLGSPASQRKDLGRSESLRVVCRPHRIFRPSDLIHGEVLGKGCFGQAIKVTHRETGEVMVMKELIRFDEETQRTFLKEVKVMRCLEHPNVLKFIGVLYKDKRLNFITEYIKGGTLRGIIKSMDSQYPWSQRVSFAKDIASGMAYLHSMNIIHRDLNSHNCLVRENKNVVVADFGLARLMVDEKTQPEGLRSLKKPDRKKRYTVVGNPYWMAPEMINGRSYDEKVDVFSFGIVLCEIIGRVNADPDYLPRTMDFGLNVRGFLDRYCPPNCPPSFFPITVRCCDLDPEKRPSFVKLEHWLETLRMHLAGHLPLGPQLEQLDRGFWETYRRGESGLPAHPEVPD
For experiment [3], the target named is Protein kinase C eta type (Homo sapiens) (UniProt P24723). The experiment is described as follows: Selectivity interaction (KinomeScan (DiscoverX)) EUB0001079a PRKCH. Conditions: at 1 µM.
Chain of Protein kinase C eta type (Homo sapiens) (P24723 whole entry): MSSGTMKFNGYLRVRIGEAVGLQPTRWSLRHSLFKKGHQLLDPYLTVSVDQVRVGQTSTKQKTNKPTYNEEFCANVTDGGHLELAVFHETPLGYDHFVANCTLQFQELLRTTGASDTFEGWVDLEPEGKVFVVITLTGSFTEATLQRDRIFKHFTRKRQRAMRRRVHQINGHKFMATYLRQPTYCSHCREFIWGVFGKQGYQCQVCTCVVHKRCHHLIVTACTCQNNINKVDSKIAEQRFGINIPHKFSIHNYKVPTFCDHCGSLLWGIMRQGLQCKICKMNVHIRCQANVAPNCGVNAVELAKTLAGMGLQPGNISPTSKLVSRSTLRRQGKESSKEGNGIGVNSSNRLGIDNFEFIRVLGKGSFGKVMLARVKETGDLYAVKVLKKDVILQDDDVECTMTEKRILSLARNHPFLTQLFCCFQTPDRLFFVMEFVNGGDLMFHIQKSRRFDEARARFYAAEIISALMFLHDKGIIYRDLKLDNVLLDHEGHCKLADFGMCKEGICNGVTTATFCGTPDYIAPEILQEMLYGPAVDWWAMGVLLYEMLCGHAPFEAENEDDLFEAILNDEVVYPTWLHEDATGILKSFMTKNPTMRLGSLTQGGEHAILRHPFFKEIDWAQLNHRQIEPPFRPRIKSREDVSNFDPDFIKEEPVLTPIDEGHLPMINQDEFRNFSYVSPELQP
The target in experiment [4] is T2, Dual specificity mitogen-activated protein kinase kinase 4 (Homo sapiens) (UniProt P45985).
T2 sequence (whole entry): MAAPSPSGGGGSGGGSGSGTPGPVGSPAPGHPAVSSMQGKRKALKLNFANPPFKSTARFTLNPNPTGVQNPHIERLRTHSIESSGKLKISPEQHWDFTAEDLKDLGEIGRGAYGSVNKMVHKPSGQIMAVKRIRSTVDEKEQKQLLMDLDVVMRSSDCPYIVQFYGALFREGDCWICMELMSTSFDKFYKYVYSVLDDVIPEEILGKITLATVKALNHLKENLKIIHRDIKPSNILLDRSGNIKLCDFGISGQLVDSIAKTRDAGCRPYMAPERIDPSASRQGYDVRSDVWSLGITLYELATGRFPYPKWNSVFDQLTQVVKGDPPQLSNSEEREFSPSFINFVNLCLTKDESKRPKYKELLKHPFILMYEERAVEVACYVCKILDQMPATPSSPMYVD
The experiment can be described thus: Selectivity interaction (KinomeScan (DiscoverX)) EUB0000092b MAP2K4. The settings on record: at 10 µM.

Experiment [5] addresses T3, Serine/threonine-protein kinase LATS2 (Homo sapiens) (UniProt Q9NRM7).
T3 sequence (whole entry): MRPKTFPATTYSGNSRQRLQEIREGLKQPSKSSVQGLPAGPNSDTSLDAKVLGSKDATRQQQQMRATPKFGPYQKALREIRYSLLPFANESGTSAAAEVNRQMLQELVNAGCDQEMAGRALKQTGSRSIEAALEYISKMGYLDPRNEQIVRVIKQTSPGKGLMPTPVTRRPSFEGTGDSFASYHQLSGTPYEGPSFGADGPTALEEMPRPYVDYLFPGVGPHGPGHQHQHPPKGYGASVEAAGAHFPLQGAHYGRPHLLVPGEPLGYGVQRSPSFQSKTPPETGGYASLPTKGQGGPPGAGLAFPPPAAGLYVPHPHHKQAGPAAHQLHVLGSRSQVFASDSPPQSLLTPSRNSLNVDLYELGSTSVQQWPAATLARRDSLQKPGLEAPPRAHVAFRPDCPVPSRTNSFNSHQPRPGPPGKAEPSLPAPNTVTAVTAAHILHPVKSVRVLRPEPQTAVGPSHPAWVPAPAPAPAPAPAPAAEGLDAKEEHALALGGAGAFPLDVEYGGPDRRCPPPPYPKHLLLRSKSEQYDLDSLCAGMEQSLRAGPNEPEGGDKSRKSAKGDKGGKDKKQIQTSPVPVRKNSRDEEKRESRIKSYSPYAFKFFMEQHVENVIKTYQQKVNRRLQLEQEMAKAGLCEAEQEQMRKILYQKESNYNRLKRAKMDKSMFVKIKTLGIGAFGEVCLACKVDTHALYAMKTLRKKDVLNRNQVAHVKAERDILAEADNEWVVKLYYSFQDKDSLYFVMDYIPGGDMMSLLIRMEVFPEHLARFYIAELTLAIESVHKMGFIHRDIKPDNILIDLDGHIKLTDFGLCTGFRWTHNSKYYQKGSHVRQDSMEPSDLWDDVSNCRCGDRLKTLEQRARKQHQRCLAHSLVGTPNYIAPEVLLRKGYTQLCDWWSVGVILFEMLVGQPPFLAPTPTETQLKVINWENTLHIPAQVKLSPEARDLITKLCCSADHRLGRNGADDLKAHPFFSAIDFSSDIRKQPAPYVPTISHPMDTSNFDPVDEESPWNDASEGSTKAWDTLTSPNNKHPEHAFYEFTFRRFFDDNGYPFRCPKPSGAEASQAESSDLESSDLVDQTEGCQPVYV
The experiment is described as follows: Selectivity interaction (KinomeScan (DiscoverX)) EUB0000092b LATS2. Conditions: at 10 µM.

Experiment [6] concerns the target Dual specificity tyrosine-phosphorylation-regulated kinase 1A (Homo sapiens, UniProt Q13627). The experiment can be described thus: Selectivity interaction (Enzymatic assay (Eurofins)) EUB0001049a DYRK1A.
For experiment [7], the system named is Epidermal growth factor receptor (Homo sapiens), P00533 [UNDEFINED MUTATION]. The experiment can be described thus: Selectivity interaction (KinomeScan (DiscoverX)) EUB0000655a EGFR. Conditions: at 10 µM.
Chain of Epidermal growth factor receptor (Homo sapiens), P00533 [UNDEFINED MUTATION] (P00533 whole entry, looked up, stated change not applied): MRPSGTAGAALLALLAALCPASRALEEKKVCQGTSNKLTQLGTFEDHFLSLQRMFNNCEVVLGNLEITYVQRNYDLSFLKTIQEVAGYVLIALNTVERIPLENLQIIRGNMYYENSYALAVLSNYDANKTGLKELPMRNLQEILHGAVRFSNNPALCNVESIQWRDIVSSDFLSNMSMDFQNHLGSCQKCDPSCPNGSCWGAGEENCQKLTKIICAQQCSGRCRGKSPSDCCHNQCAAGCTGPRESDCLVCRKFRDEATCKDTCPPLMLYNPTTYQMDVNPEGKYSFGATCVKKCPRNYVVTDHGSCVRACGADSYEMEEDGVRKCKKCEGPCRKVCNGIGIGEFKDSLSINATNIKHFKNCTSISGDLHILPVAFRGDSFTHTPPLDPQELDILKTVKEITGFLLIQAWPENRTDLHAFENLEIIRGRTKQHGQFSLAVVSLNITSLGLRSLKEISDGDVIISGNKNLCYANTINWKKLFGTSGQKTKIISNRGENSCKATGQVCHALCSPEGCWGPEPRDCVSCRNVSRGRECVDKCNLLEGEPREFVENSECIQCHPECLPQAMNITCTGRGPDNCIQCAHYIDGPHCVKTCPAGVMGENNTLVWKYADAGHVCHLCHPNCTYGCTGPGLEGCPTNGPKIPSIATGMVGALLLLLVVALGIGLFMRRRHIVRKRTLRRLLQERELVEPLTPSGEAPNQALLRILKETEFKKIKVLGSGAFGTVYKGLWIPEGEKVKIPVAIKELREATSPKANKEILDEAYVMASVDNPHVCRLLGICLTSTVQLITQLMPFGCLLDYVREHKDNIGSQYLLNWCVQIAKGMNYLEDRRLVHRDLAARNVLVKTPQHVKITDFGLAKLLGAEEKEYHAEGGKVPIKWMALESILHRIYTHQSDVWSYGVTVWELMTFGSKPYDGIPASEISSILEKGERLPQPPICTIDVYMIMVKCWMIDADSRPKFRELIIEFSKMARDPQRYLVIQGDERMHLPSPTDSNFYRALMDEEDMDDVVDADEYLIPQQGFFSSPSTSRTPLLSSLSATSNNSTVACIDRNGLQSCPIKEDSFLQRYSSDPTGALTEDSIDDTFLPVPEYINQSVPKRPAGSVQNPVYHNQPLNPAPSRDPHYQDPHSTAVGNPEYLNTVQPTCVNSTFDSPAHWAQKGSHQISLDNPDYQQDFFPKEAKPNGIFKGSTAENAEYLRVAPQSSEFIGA
For experiment [8], the target named is Insulin-like growth factor 1 receptor (Homo sapiens, UniProt P08069). The experiment can be described thus: Selectivity interaction (KinomeScan (DiscoverX)) EUB0000666a IGF1R. The settings on record: at 10 µM.
Chain of Insulin-like growth factor 1 receptor (P08069 31-736 limits assumed): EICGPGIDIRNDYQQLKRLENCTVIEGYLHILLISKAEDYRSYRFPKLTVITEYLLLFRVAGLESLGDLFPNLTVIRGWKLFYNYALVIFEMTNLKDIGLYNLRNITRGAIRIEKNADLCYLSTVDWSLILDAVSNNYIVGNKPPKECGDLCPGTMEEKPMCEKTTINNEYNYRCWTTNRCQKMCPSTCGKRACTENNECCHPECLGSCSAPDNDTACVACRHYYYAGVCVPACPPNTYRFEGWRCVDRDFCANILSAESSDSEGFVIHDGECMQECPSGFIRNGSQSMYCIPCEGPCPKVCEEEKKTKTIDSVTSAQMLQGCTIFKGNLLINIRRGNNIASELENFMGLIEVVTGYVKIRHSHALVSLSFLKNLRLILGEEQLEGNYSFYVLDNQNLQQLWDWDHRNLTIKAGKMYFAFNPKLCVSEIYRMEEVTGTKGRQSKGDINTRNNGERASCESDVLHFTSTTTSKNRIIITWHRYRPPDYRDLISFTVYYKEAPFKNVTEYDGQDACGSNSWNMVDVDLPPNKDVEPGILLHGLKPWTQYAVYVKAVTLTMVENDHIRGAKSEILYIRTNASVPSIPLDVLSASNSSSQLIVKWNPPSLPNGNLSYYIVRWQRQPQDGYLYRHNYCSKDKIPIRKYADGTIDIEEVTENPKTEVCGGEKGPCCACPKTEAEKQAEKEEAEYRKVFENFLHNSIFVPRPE
Chain of Insulin-like growth factor 1 receptor (P08069 741-1367 limits assumed): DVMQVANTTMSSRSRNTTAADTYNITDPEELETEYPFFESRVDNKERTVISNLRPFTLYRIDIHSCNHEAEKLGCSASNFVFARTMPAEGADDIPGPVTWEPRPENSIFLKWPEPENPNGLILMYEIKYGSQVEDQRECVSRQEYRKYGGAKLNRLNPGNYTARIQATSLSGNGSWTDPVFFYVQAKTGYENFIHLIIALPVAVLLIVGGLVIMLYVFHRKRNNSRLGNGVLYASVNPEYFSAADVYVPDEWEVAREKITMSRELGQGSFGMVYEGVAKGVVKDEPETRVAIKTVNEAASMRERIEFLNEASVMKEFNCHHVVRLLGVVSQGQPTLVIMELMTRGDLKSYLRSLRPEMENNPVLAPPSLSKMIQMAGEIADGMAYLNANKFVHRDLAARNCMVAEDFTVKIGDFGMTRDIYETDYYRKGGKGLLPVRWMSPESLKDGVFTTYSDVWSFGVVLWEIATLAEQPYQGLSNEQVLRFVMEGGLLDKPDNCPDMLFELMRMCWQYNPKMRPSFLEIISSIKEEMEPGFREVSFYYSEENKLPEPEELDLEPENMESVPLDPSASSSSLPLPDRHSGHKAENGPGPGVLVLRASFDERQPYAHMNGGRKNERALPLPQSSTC
Experiment [9] addresses Serine/threonine-protein kinase SMG1 (Homo sapiens) (UniProt Q96Q15). The experiment is described as follows: Selectivity interaction (ActivX KiNativ screen (kinase selectivity in THP-1 cell lysates)) EUB0000639a SMG1. Conditions: lysate, at 0.01 µM. The format is subcellular.
For experiment [10], the target named is Protein kinase C eta type (Homo sapiens) (UniProt P24723). The experiment can be described thus: Selectivity interaction (KinomeScan (DiscoverX)) EUB0000229b PRKCH. Conditions: at 10 µM.

Structures are written as SMILES.

On to `Cc1ccc(-c2ccc3c(ccc4sc5c(c43)NC[C@@H](C)NC5=O)n2)cn1`, for which, in [1], the % of inhibition came out at 58%. `Cc1cc([C@@H](C)Nc2ccccc2C(=O)O)c2nc(N3CCOCC3)cc(=O)n2c1` [AZD-6482] had a % of control in experiment [2] of 100%. Compound `Nc1cnc(N2CCc3cc(S(=O)(=O)Nc4c(F)cc(Cl)cc4F)cc(N4CCCC4=O)c32)nc1` [TP-020n] registered a % of control in [3] of 80%. In the case of `CCC(=O)N1CCN(c2ccc(-n3c(=O)ccc4cnc5ccc(-c6cnc7ccccc7c6)cc5c43)cc2C(F)(F)F)CC1`, the % of control in experiment [4] worked out at 30%; in experiment [5], 100%. The term IC50 denotes the concentration needed to halve the response being measured. Higher therefore signals lower potency. For the compound `COc1cc(Nc2nc(C)cc(-c3cnn4nc(OC)ccc34)n2)cc(C(F)(F)F)c1`, in experiment [6], the IC50 was > 10 µM. `CN(C)CCOc1ccc(-c2nc(-c3ccncc3)c(-c3ccc4c(c3)CC/C4=N\O)[nH]2)cc1`: the % of control in experiment [7] amounted to 81%. Take `O=C(NOC[C@H](O)CO)c1ccc(F)c(F)c1Nc1ccc(I)cc1F`: the % of control in [8] was found to be 87%. As to `CC[C@@H]1[C@H](F)C(=O)N[C@@H]1COc1nccc2cc(C(N)=O)c(OC)cc12` [ZIMLOVISERTIB], the % of inhibition in [9] was -2.1%. In the case of `COc1cc(N(C)c2ccnc3ccc(C(F)(F)F)cc23)cc(OC)c1OC`, in experiment [10], the % binding amounted to 96%.
